The source of these data is ChEMBL document CHEMBL1145982, “Novel dihydrofolate reductase inhibitors. Structure-based versus diversity-based library design and high-throughput synthesis and screening” (J Med Chem, 2003).

By IC50 is commonly meant the point on the concentration scale where inhibition reaches its midpoint. A high value points to lower potency.

Test [1] concerns the target T1, Dihydrofolate reductase (Staphylococcus aureus, UniProt P0A017). As to the kind of experiment: Inhibitory activity against TMP-Resistance Dihydrofolate reductase from Staphylococcus aureus 157/4696.
A further test is filed under the species Homo sapiens. As to the kind of experiment: Selectivity ratio against human and […] ATCC 49619 dihydrofolate reductase.
Test [2] has as its target T2, Dihydrofolate reductase (Homo sapiens) (UniProt P00374).
T2 sequence (whole entry): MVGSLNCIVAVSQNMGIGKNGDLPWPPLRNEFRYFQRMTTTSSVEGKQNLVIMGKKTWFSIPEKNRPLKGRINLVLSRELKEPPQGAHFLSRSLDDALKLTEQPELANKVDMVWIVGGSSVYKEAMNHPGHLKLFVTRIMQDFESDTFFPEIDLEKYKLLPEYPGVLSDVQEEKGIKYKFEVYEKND
As to conditions: Staphylococcus; ATCC 49619.
Description: Antibacterial activity of TMP-susceptible DHFR against Staphylococcus pneumoniae ATCC 49619

Test [3] concerns the target T2, Dihydrofolate reductase (Homo sapiens). As to conditions: Staphylococcus; ATCC 49619. This is another data set of the same source.
Description: Antibacterial activity against TMP-susceptible DHFR from Staphylococcus pneumoniae ATCC 49619
Test [4] addresses Dihydrofolate reductase (Staphylococcus aureus) (UniProt P0A017).
Description: Tested for inhibition of TMP-Resistant Dihydrofolate reductase from Staphylococcus pneumoniae 1/1.
The target in test [5] is T2, Dihydrofolate reductase (Homo sapiens). The conditions noted are these: Staphylococcus.
Description: Antibacterial activity against TMP-Resistant Dihydrofolate reductase from Staphylococcus aureus 157/4696
Test [6] concerns the target T1, Dihydrofolate reductase. As to the kind of experiment: Inhibitory activity of TMP-Resistance DHFR against Staphylococcus aureus 157/4696.
Test [7] has as its target T2, Dihydrofolate reductase (Homo sapiens). As to conditions: Staphylococcus. This is another data set of the same source.
Description: Inhibitory activity of TMP-Resistance Dihydrofolate reductase against Staphylococcus aureus 157/4696
For test [8], the target named is T1, Dihydrofolate reductase. As to the kind of experiment: Tested for inhibition of TMP-Resistant Dihydrofolate reductase from Staphylococcus aureus 157/4696.

Molecules are shown by their SMILES. In brackets after ≈: the same amount, converted by molar mass. Bounds are passed on as bounds.

T1 sequence (P0A017 2-159 limits assumed): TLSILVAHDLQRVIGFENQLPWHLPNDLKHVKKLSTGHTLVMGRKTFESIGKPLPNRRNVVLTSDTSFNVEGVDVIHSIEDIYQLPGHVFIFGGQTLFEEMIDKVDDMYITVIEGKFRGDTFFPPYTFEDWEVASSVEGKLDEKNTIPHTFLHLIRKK
Chain of Dihydrofolate reductase (Staphylococcus aureus) (P0A017 2-159 limits assumed): as above

Turning to `Nc1ncc(CN2CCc3ccccc3C2)c(N)n1`, the IC50 against Dihydrofolate reductase [1] was 40 µM. Also, the Ratio in the test filed under Homo sapiens was > 90.

Regarding `CSc1c2n(c3cc(Cl)ccc13)CCN(Cc1cnc(N)nc1N)C2`, the Ratio in the test filed under Homo sapiens came out at 2600. Still for that read-out and setting: with `Nc1ncc(CN2CCc3c([nH]c4ccccc34)C2)c(N)n1` the figure was 45000. `COc1cc2c(c3c1OCO3)[C@H](C)N(Cc1cnc(N)nc1N)CC2` returned an IC50 at Dihydrofolate reductase [1] of 5.4 µM.

Turning to `CC1c2ccc3c4ccccc4n(C)c3c2CCN1Cc1cnc(N)nc1N` (centres undefined), the Ratio in the test listed under Homo sapiens is 21.

Regarding `COc1ccc2c(c1)CN(Cc1cnc(N)nc1N)CC2c1cccc([N+](=O)[O-])c1` (centres undefined), the Ratio in the test filed under Homo sapiens stood at 16700. On to `COc1cc2c(cc1OC)CN(Cc1cnc(N)nc1N)CC2`, for which the MIC in test [2] was 0.5 µg/mL (≈ 1.59 µM); in test [3], 0.5 µg/mL (≈ 1.59 µM); in test [4] it was > 32 µg/mL; in [5], 4 µg/mL (≈ 12.7 µM); in [7], 4 µg/mL (≈ 12.7 µM). The IC50 at Dihydrofolate reductase [6] is 30 µM; at Dihydrofolate reductase [8], > 100 µM. `COc1cc2c(cc1OC)C(c1ccc(Cl)cc1Cl)CN(Cc1cnc(N)nc1N)C2` (centres undefined) registered an IC50 on Dihydrofolate reductase [1] of 2 µM. The Ratio in the test listed under Homo sapiens was 243. At Dihydrofolate reductase [1], `COc1cc2c(c3c1OCO3)[C@@H](C)N(Cc1cnc(N)nc1N)CC2` displayed an IC50 of 1.3 µM. For the molecule `COc1cc2c(cc1OC)C(C)N(Cc1cnc(N)nc1N)CC2` (centres undefined), the Ratio in the test filed under Homo sapiens stood at 15. The same measure, in the same setting: with `CC1c2cc(Cc3ccccc3)c(-c3ccccc3)n2CCN1Cc1cnc(N)nc1N` (centres undefined) the figure was 40.
